Patent publication US8314112B2 (Novartis AG, priority 2008, dated 2012)

Target: T1, human ALK5 (kinase domain, ALK5 T204D) (Homo sapiens, UniProt P36897, T204D)
T1 construct: The kinase domain of human ALK5 (amino acids 200-503); made in house; host or cells: insect cells (baculovirus)
T1 sequence (P36897 200-503 T204D): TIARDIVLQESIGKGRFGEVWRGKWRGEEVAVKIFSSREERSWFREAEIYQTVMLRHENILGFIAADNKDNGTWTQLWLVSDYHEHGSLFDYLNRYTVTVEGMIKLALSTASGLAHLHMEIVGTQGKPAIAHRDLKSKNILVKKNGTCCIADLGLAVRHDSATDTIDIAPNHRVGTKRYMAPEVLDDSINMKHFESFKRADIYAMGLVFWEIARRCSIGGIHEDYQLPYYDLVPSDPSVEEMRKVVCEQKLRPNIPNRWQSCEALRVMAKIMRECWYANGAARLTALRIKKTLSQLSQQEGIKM
Experiment: ALK5 kinase assay ([33P] phosphate incorporation into casein)
Format: biochemical
Settings: casein substrate, 1 μM unlabelled ATP
Method in brief: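 His-tagged human ALK5 T204D kinase domain (aa 200-503, constitutively active, baculovirus/insect-cell expressed), 50 ng/well, preincubated 10 min with compound and dephosphorylated casein (200 μg/well) in Tris pH 7.4/MgCl2/MnCl2. Reaction started with 1 μM ATP plus [33P]ATP, 50 min at room temperature, EDTA-stopped; casein-bound 33P counted by scintillation after filter capture.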

Row | SMILES | IC50
1 | Cc1cccc(-c2nc(-c3cncc(-c4cccc(C(C)(C)N)c4)c3)c3cc[nH]c3n2)n1 [Example 85, 1-Methyl-1-(3-{5-[2-(6-methyl-pyridin-2-yl)-7H-pyrrolo[2,3-d]pyrimidin-4-yl]-pyridin-3-yl}-phenyl)-ethylamine] | 99 nM
2 | Cc1cccc(-c2cc(-c3cncc(C4=CCCC4)c3)c3cc[nH]c3n2)n1 [Example 89, 4-(5-Cyclopent-1-enyl-pyridin-3-yl)-6-(6-methyl-pyridin-2-yl)-1H-pyrrolo[2,3-b]pyridine] | 79 nM
3 | Cc1cccc(-c2cc(-c3cncc(-c4cncc(CN(C)C)c4)c3)c3cc[nH]c3n2)n1 [Example 91, Dimethyl-{5′-[6-(6-methyl-pyridin-2-yl)-1H-pyrrolo[2,3-b]pyridin-4-yl]-[3,3′]bipyridinyl-5-ylmethyl}-amine] | 109 nM
4 | CNCc1cncc(-c2cncc(-c3cc(-c4cccc(C)n4)nc4[nH]ccc34)c2)c1 [Example 92, Methyl-{5′-[6-(6-methyl-pyridin-2-yl)-1H-pyrrolo[2,3-b]pyridin-4-yl]-[3,3′]bipyridinyl-5-ylmethyl}-amine] | 103 nM
5 | CSc1cncc(-c2nc(-c3cccc(C)n3)nc3[nH]ccc23)c1 [Example 94, 2-(6-Methyl-pyridin-2-yl)-4-(5-methylsulfanyl-pyridin-3-yl)-7H-pyrrolo[2,3-d]pyrimidine] | 191 nM
6 | Cc1cccc(-c2nc(-c3cncc(N)c3)c3cc[nH]c3n2)n1 [Example 95, 5-[2-(6-Methyl-pyridin-2-yl)-7H-pyrrolo[2,3-d]pyrimidin-4-yl]-pyridin-3-ylamine] | 259 nM
7 | Cc1cncc(-c2nc(-c3cccc(C)n3)nc3[nH]ccc23)c1 [Example 96, 4-(5-Methyl-pyridin-3-yl)-2-(6-methyl-pyridin-2-yl)-7H-pyrrolo[2,3-d]pyrimidine] | 751 nM
8 | Cc1cccc(-c2nc(-c3cncc(C#N)c3)c3cc[nH]c3n2)n1 [Example 98, 5-[2-(6-Methyl-pyridin-2-yl)-7H-pyrrolo[2,3-d]pyrimidin-4-yl]-nicotinonitrile] | 799 nM
9 | Cc1cccc(-c2nc(-c3cncc(C4=CCNCC4)c3)c3cc[nH]c3n2)n1 [Example 101, 5-[2-(6-Methyl-pyridin-2-yl)-7H-pyrrolo[2,3-d]pyrimidin-4-yl]-1′,2′,3′,6′-tetrahydro-[3,4′]bipyridinyl] | 437 nM
10 | CC(=O)N1CC=C(c2cncc(-c3nc(-c4cccc(C)n4)nc4[nH]ccc34)c2)CC1 [Example 103, 1-{5-[2-(6-Methyl-pyridin-2-yl)-7H-pyrrolo[2,3-d]pyrimidin-4-yl]-3′,6′-dihydro-2′H-[3,4′]bipyridinyl-1′-yl}-ethanone] | 133 nM
11 | Cc1cccc(-c2nc(-c3cncc(-c4nnn[nH]4)c3)c3cc[nH]c3n2)n1 [Example 104, 2-(6-Methyl-pyridin-2-yl)-4-[5-(1H-tetrazol-5-yl)-pyridin-3-yl]-7H-pyrrolo[2,3-d]pyrimidine] | 1030 nM
12 | CSc1cncc(-c2cc(-c3cccc(C)n3)nc3[nH]ccc23)c1 [Example 105, 6-(6-Methyl-pyridin-2-yl)-4-(5-methylsulfanyl-pyridin-3-yl)-1H-pyrrolo[2,3-b]pyridine] | 115 nM
13 | Cc1cccc(-c2cc(-c3cncc(N)c3)c3cc[nH]c3n2)n1 [Example 106, 5-[6-(6-Methyl-pyridin-2-yl)-1H-pyrrolo[2,3-b]pyridin-4-yl]-pyridin-3-ylamine] | 66 nM
14 | Cc1cccc(-c2cc(-c3cncc(CO)c3)c3cc[nH]c3n2)n1 [Example 109, {5-[6-(6-Methyl-pyridin-2-yl)-1H-pyrrolo[2,3-b]pyridin-4-yl]-pyridin-3-yl}-methanol] | 812 nM
15 | Cc1cccc(-c2cc(-c3cncc(C4=CCNCC4)c3)c3cc[nH]c3n2)n1 [Example 111, 5-[6-(6-Methyl-pyridin-2-yl)-1H-pyrrolo[2,3-b]pyridin-4-yl]-1′,2′,3′,6′-tetrahydro-[3,4′]bipyridinyl] | 42 nM
16 | Cc1cccc(-c2nc(-c3cncc(-c4ccc5c(c4)CCNC5)c3)c3cc[nH]c3n2)n1 [Example 115, 6-{5-[2-(6-Methyl-pyridin-2-yl)-7H-pyrrolo[2,3-d]pyrimidin-4-yl]-pyridin-3-yl}-1,2,3,4-tetrahydro-isoquinoline] | 1150 nM
17 | Cc1cccc(-c2nc(-c3cncc(C4=CCN(C)CC4)c3)c3cc[nH]c3n2)n1 [Example 116, 1′-Methyl-5-[2-(6-methyl-pyridin-2-yl)-7H-pyrrolo[2,3-d]pyrimidin-4-yl]-1′,2′,3′,6′-tetrahydro-[3,4′]bipyridinyl] | 532 nM

Next, values leading:

Row | IC50 | SMILES
18 | 8 nM | Cc1cccc(-c2cc(-c3cncc(-c4cccc(CN)c4)c3)c3cc[nH]c3n2)n1 [Example 86, 3-{5-[6-(6-Methyl-pyridin-2-yl)-1H-pyrrolo[2,3-b]pyridin-4-yl]-pyridin-3-yl}-benzylamine]
19 | 10 nM | Cc1cccc(-c2nc(-c3cncc(-c4ccc(C5CNCCN5)cc4)c3)c3cc[nH]c3n2)n1 (stereo not drawn) [Example 87, 2-(6-Methyl-pyridin-2-yl)-4-[5-(4-piperazin-2-yl-phenyl)-pyridin-3-yl]-7H-pyrrolo[2,3-d]pyrimidine]
20 | 20 nM | Cc1cccc(-c2cc(-c3cncc(-c4ccc(CN5CCOCC5)cc4)c3)c3cc[nH]c3n2)n1 [Example 88, 6-(6-Methyl-pyridin-2-yl)-4-[5-(4-morpholin-4-ylmethyl-phenyl)-pyridin-3-yl]-1H-pyrrolo[2,3-b]pyridine]
21 | 66 nM | Cc1cccc(-c2cc(-c3cncc(-c4cccc(CN5CCOCC5)c4)c3)c3cc[nH]c3n2)n1 [Example 90, 6-(6-Methyl-pyridin-2-yl)-4-[5-(3-morpholin-4-ylmethyl-phenyl)-pyridin-3-yl]-1H-pyrrolo[2,3-b]pyridine]
22 | 24 nM | Cc1cccc(-c2cc(-c3cncc(-c4cccc(CO)c4)c3)c3cc[nH]c3n2)n1 [Example 93, (3-{5-[6-(6-Methyl-pyridin-2-yl)-1H-pyrrolo[2,3-b]pyridin-4-yl]-pyridin-3-yl}-phenyl)-methanol]
23 | 8 nM | Cc1cccc(-c2nc(-c3cncc(-c4ccc(CN5CC[C@@H](N(C)C)C5)cc4)c3)c3cc[nH]c3n2)n1 [Example 97, Dimethyl-[(R)-1-(4-{5-[2-(6-methyl-pyridin-2-yl)-7H-pyrrolo[2,3-d]pyrimidin-4-yl]-pyridin-3-yl}-benzyl)-pyrrolidin-3-yl]-amine]
24 | 14 nM | Cc1cccc(-c2nc(-c3cncc(-c4cccc(C5CNCCN5)c4)c3)c3cc[nH]c3n2)n1 (stereo not drawn) [Example 99, 2-(6-Methyl-pyridin-2-yl)-4-[5-(3-piperazin-2-yl-phenyl)-pyridin-3-yl]-7H-pyrrolo[2,3-d]pyrimidine]
25 | 8 nM | Cc1cccc(-c2nc(-c3cncc(-c4ccc(CN5CC[C@H](N(C)C)C5)cc4)c3)c3cc[nH]c3n2)n1 [Example 100, Dimethyl-[(S)-1-(4-{5-[2-(6-methyl-pyridin-2-yl)-7H-pyrrolo[2,3-d]pyrimidin-4-yl]-pyridin-3-yl}-benzyl)-pyrrolidin-3-yl]-amine]
26 | 31 nM | Cc1cccc(-c2nc(-c3cncc(-c4cccc(C5CCCN5)c4)c3)c3cc[nH]c3n2)n1 (stereo not drawn) [Example 102, 2-(6-Methyl-pyridin-2-yl)-4-[5-(3-pyrrolidin-2-yl-phenyl)-pyridin-3-yl]-7H-pyrrolo[2,3-d]pyrimidine]
27 | 43 nM | Cc1cccc(-c2cc(-c3cncc(O)c3)c3cc[nH]c3n2)n1 [Example 107, 5-[6-(6-Methyl-pyridin-2-yl)-1H-pyrrolo[2,3-b]pyridin-4-yl]-pyridin-3-ol]
28 | 4.6 nM | Cc1cccc(-c2cc(-c3cncc(-c4ccc(CN5CC[C@@H](N(C)C)C5)cc4)c3)c3cc[nH]c3n2)n1 [Example 108, Dimethyl-[(R)-1-(4-{5-[6-(6-methyl-pyridin-2-yl)-1H-pyrrolo[2,3-b]pyridin-4-yl]-pyridin-3-yl}-benzyl)-pyrrolidin-3-yl]-amine]
29 | 20 nM | Cc1cccc(-c2cc(-c3cncc(-c4ccc(CN5CC[C@H](N(C)C)C5)cc4)c3)c3cc[nH]c3n2)n1 [Example 110, Dimethyl-[(S)-1-(4-{5-[6-(6-methyl-pyridin-2-yl)-1H-pyrrolo[2,3-b]pyridin-4-yl]-pyridin-3-yl}-benzyl)-pyrrolidin-3-yl]-amine]
30 | 7 nM | Cc1cccc(-c2cc(-c3cncc(-c4ccc(C(C)N)cc4)c3)c3cc[nH]c3n2)n1 (stereo not drawn) [Example 112, 1-(4-{5-[6-(6-Methyl-pyridin-2-yl)-1H-pyrrolo[2,3-b]pyridin-4-yl]-pyridin-3-yl}-phenyl)-ethylamine]
31 | 27 nM | Cc1cccc(-c2cc(-c3cncc(-c4cccc(C(C)(C)N)c4)c3)c3cc[nH]c3n2)n1 [Example 113, 1-Methyl-1-(3-{5-[6-(6-methyl-pyridin-2-yl)-1H-pyrrolo[2,3-b]pyridin-4-yl]-pyridin-3-yl}-phenyl)-ethylamine]
32 | 4.6 nM | Cc1cccc(-c2cc(-c3cncc(-c4ccc(C(C)(C)N)cc4)c3)c3cc[nH]c3n2)n1 [Example 114, 1-Methyl-1-(4-{5-[6-(6-methyl-pyridin-2-yl)-1H-pyrrolo[2,3-b]pyridin-4-yl]-pyridin-3-yl}-phenyl)-ethylamine]
33 | 15 nM | Cc1cccc(-c2nc(-c3cncc(-c4cnn(C)c4)c3)c3cc[nH]c3n2)n1 [Example 117, 4-[5-(1-Methyl-1H-pyrazol-4-yl)-pyridin-3-yl]-2-(6-methyl-pyridin-2-yl)-7H-pyrrolo[2,3-d]pyrimidine]
